Counter-ions that a name gives are not always drawn. Like-named read-outs stand apart in the source and are kept apart here.

In one assay the target is mouse TAAR1 (Mus musculus (Mouse), UniProt Q923Y8). The experiment in a line: Radioligand binding assay on mouse TAAR1. The note with it: read-out: Ki (μM) mouse. In a few lines: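 Displacement of the tritiated oxazol-2-ylamine radioligand was measured by filtration and scintillation counting after 1 h incubation at 4 °C. Test concentrations ran 10 pM–10 μM in duplicate, with 10 μM cold ligand giving nonspecific binding. The receptor source was membranes of a stable mouse TAAR1 HEK293 line.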

For another assay, the target named is rat TAAR1 (Rattus norvegicus (Rat), UniProt Q923Y9). The experiment in a line: Radioligand binding assay on rat TAAR1. The note with it: read-out: Ki (μM) rat. The essentials:
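Membranes from HEK293 cells stably expressing rat TAAR1, with Kd checked per batch by saturation. Competition with ³H-(S)-4-[(ethyl-phenyl-amino)-methyl]-4,5-dihydro-oxazol-2-ylamine, compounds 10 pM–10 μM in duplicate, 1 hr at 4 °C. Filtration then scintillation counting; nonspecific binding defined with 10 μM unlabeled ligand.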

Where [1] appears, read: rat TAAR1, HEK-293 membranes, second value of cell mouse/rat.
Setting [2] is: mouse TAAR1, HEK-293 membranes, first value of cell mouse/rat.

Sequence of rat TAAR1 (Q923Y9 whole entry): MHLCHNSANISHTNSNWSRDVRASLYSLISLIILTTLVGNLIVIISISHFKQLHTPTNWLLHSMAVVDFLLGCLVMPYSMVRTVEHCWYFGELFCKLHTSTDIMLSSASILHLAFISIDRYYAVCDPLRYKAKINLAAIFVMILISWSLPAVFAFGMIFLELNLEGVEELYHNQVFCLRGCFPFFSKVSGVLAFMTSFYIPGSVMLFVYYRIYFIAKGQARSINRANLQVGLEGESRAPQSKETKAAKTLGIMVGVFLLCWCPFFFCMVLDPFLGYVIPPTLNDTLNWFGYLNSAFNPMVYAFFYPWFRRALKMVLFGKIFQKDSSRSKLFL
Sequence of mouse TAAR1 (Q923Y8 whole entry): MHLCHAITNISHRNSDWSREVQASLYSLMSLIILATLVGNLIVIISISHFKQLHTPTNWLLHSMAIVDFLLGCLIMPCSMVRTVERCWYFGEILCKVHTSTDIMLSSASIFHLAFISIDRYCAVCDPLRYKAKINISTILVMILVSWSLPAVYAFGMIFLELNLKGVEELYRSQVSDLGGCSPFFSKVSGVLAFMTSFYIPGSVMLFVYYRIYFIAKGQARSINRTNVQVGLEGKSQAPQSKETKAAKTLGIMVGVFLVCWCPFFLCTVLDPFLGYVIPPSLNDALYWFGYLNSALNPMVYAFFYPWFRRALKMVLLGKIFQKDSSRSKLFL

What is called Ki is a dissociation constant, usually derived from enzyme kinetics or from competition with a known ligand. As for `Cc1ccc(C(=O)Nc2ccc(C3CCNC3)cc2)cc1` (racemic) [Example 182, (RS)-4-Methyl-N-(4-(pyrrolidin-3-yl)phenyl)benzamide hydrochloride], the Ki at mouse TAAR1 turned out to be 0.0253 µM; at rat TAAR1 (setting [1]), 0.0025 µM.
As to `O=C(Nc1ccc(C2CCNC2)cc1)c1cnc(Cl)cn1` (racemic) [Example 163, (RS)-5-Chloro-N-(4-(pyrrolidin-3-yl)phenyl)pyrazine-2-carboxamide hydrochloride], the inhibitory constant (Ki) was determined as 0.0573 µM on mouse TAAR1 (setting [2]) and 0.0121 µM on rat TAAR1 (setting [1]).
For `COc1cc(C(=O)Nc2ccc([C@H]3CCCNC3)cc2)ccc1Cl` [Example 200, (R)-4-Chloro-3-methoxy-N-(4-(piperidin-3-yl)phenyl)benzamide hydrochloride], in that order: 0.0039 µM and 0.0022 µM.
The like results for `CC(CO)(CCl)COc1ccc(C(=O)Nc2ccc(C3CNCCO3)cc2)cc1` (racemic) [Example 220, (RS)-4-(2-Chloromethyl-3-hydroxy-2-methyl-propoxy)-N-(4-morpholin-2-yl-phenyl)-benzamide] were, in that order, 0.0435 µM and 0.0024 µM.
Consider `O=C(Nc1ccc(C2CCNC2)cc1)OCCc1ccc(Cl)c(Cl)c1` (racemic) [Example 126, (RS)-(4-Pyrrolidin-3-yl-phenyl)-carbamic acid 2-(3,4-dichloro-phenyl)-ethyl ester], for which the Ki came out at 0.0019 µM on mouse TAAR1 (setting [2]) and 0.0022 µM at rat TAAR1 (setting [1]).
For `O=C(Nc1ccc([C@H]2CNCCCO2)cc1)c1cccc(Cl)c1` [Example 308, (S)—N-(4-(1,4-Oxazepan-2-yl)phenyl)-3-chlorobenzamide hydrochloride], in that order: 0.287 µM and 0.0018 µM.
`Cc1cc(C(=O)Nc2ccc([C@H]3CNCCO3)cc2)cc(Cl)n1` [Example 286, (S)-2-Chloro-6-methyl-N-(4-(morpholin-2-yl)phenyl)isonicotinamide hydrochloride]: the inhibition constant Ki worked out at 0.0222 µM on mouse TAAR1 and 0.0044 µM at rat TAAR1 (setting [1]).
Turning to `CCc1ccc(C(=O)Nc2ccc(C3CNCCO3)cc2)cc1` (racemic) [Example 198, (RS)-4-Ethyl-N-(4-(morpholin-2-yl)phenyl)benzamide hydrochloride], the Ki was found to be 0.0147 µM at mouse TAAR1 (setting [2]) and 0.0028 µM on rat TAAR1 (setting [1]).
For `O=C(Nc1ccc(C2CCCNC2)cc1)c1ccc(C(F)(F)F)cc1` (racemic) [Example 98, (RS)—N-(4-Piperidin-3-yl-phenyl)-4-trifluoromethyl-benzamide hydrochloride], in that order: 0.0041 µM and 0.0114 µM.
Turning to `CN1CCC(c2ccc(NC(=O)c3ccc(Cl)cc3)cc2)C1` (racemic) [Example 32, (RS)-4-Chloro-N-[4-(1-methyl-pyrrolidin-3-yl)-phenyl]-benzamide], the Ki on mouse TAAR1 (setting [2]) was found to be 0.0005 µM; at rat TAAR1 (setting [1]), 0.0858 µM.
For `Cc1cccc(NC(=O)Nc2ccc(C3CNCCO3)cc2)c1` (racemic) [Example 304, (RS)-1-(4-(Morpholin-2-yl)phenyl)-3-m-tolylurea hydrochloride], in that order: 0.0071 µM and 0.0012 µM.
On to `COc1ccc(C(=O)Nc2ccc([C@@H]3CCCNC3)cc2)cc1Cl` [Example 203, (S)-3-Chloro-4-methoxy-N-(4-(piperidin-3-yl)phenyl)benzamide hydrochloride], for which the inhibitory constant (Ki) at mouse TAAR1 came out at 0.0603 µM; on rat TAAR1 it was 0.0014 µM.
For the compound `O=C(Nc1ccc(CCC2CCCNC2)cc1)c1ncccc1F` (racemic) [Example 134, (RS)-3-Fluoro-pyridine-2-carboxylic acid [4-(2-piperidin-3-yl-ethyl)-phenyl]-amide hydrochloride], the inhibitory constant (Ki) on mouse TAAR1 (setting [2]) worked out at 2.06 µM; on rat TAAR1 (setting [1]), 0.106 µM.
For `Cc1ccc(C(=O)Nc2ccc(C3CCCNC3)cc2)cc1` (racemic) [Example 185, (RS)-4-Methyl-N-(4-(piperidin-3-yl)phenyl)benzamide hydrochloride], the Ki at mouse TAAR1 (setting [2]) worked out at 0.0333 µM; at rat TAAR1 (setting [1]), 0.0026 µM.
Turning to `O=C(Nc1ccc(C2CCCNC2)cc1)c1ccc(F)cn1` (racemic) [Example 180, (RS)-5-Fluoro-N-(4-(piperidin-3-yl)phenyl)picolinamide hydrochloride], the Ki on mouse TAAR1 (setting [2]) came out at 0.0507 µM; at rat TAAR1 (setting [1]), 0.0131 µM.
As for `O=C(Nc1ccc(C2CNCCO2)cc1)c1ccc(OCc2ccccc2)cc1` (racemic) [Example 192, (RS)-4-(benzyloxy)-N-(4-(morpholin-2-yl)phenyl)benzamide hydrochloride], the inhibition constant Ki is 0.0052 µM at mouse TAAR1 (setting [2]) and 0.0113 µM at rat TAAR1 (setting [1]).
For `Cc1ccc(C(=O)Nc2ccc([C@H]3CNCCO3)cc2)cc1` [Example 196, (S)-4-Methyl-N-(4-(morpholin-2-yl)phenyl)benzamide hydrochloride], in that order: 0.0524 µM and 0.001 µM.
Turning to `O=C(Nc1ccc(C2CCNC2)cc1)c1ccccc1` (racemic) [Example 13, (RS)—N-(4-Pyrrolidin-3-yl-phenyl)-benzamide hydrochloride], the Ki at mouse TAAR1 (setting [2]) was found to be 0.008 µM; at rat TAAR1 (setting [1]), 0.0995 µM.
Regarding `O=C(Nc1ccc([C@H]2CNCCO2)cc1)c1ccc(Cl)cc1` [Example 144, 4-Chloro-N—((S)-4-morpholin-2-yl-phenyl)-benzamide hydrochloride], the Ki came out at 0.0188 µM at mouse TAAR1 and 0.0011 µM at rat TAAR1.
`Cc1cccc(C(=O)Nc2ccc([C@@H]3CCCNC3)cc2)c1` [Example 253, (S)-3-Methyl-N-(4-(piperidin-3-yl)phenyl)benzamide]: the Ki at mouse TAAR1 worked out at 0.36 µM; at rat TAAR1 (setting [1]), 0.0035 µM.
`O=C(Nc1ccc(N2CCNCC2)cc1)c1ccc(Cl)cc1` [Example 59, 4-Chloro-N-(4-piperazin-1-yl-phenyl)-benzamide hydrochloride]: the Ki at mouse TAAR1 (setting [2]) came to 0.0256 µM; at rat TAAR1 (setting [1]), 0.0014 µM.
Consider `O=C(Nc1ccc(C2CCNC2)cc1)c1ccc(Cl)cc1` (racemic) [Example 16, (RS)-4-Chloro-N-(4-pyrrolidin-3-yl-phenyl)-benzamide hydrochloride], for which the values for the inhibition constant (Ki) at mouse TAAR1 (setting [2]) and on rat TAAR1 (setting [1]) were 0.0007 µM and 0.0043 µM, respectively.
For `O=C(Nc1ccc(C2CNCCO2)cc1)c1cncc(Cl)c1` (racemic) [Example 210, (RS)-5-chloro-N-(4-(morpholin-2-yl)phenyl)nicotinamide hydrochloride], in that order: 0.0436 µM and 0.0062 µM.
On to `CCOc1ccc(C(=O)Nc2ccc(CCC3CCCN3)cc2)cc1` (racemic) [Example 158, (RS)-4-Ethoxy-N-[4-(2-pyrrolidin-2-yl-ethyl)-phenyl]-benzamide hydrochloride], for which the inhibitory constant (Ki) at mouse TAAR1 (setting [2]) worked out at 0.0326 µM; on rat TAAR1 (setting [1]) it was 0.0014 µM.
Regarding `O=C(Nc1ccc(C2CCNC2)cc1)Nc1cccc(Cl)c1` (racemic) [Example 8, (RS)-1-(3-Chloro-phenyl)-3-(4-pyrrolidin-3-yl-phenyl)-urea hydrochloride], the inhibition constant (Ki) worked out at 0.0015 µM on mouse TAAR1 (setting [2]) and 0.0044 µM at rat TAAR1 (setting [1]).
With `Cc1cc(C(=O)Nc2ccc(C3CNCCO3)cc2)cc(C)n1` (racemic) [Example 295, (RS)-2,6-Dimethyl-N-(4-(morpholin-2-yl)phenyl)isonicotinamide dihydrochloride], the figures for the Ki at mouse TAAR1 (setting [2]) and on rat TAAR1 (setting [1]) were 0.235 µM and 1.2 µM, respectively.
For the compound `O=C(Nc1ccc([C@@H]2CCCNC2)cc1)OC1Cc2ccccc2C1` [Example 258, (S)-2,3-Dihydro-1H-inden-2-yl 4-(piperidin-3-yl)phenylcarbamate 2,2,2-trifluoroacetate], the Ki on mouse TAAR1 stood at 0.0225 µM; on rat TAAR1 (setting [1]), 0.0062 µM.
The like results for `Cc1cc(C(=O)Nc2ccc([C@@H]3CCCNC3)cc2)cc(Cl)n1` [Example 282, (S)-2-Chloro-6-methyl-N-(4-(piperidin-3-yl)phenyl)isonicotinamide] were, in that order, 0.243 µM and 0.0048 µM.
With `COc1cccc(CC(=O)Nc2ccc(C3CCNC3)cc2)c1` (racemic) [Example 65, (RS)-2-(3-Methoxy-phenyl)-N-(4-pyrrolidin-3-yl-phenyl)-acetamide hydrochloride], the inhibition constant Ki was determined as 0.125 µM on mouse TAAR1 (setting [2]) and 0.352 µM at rat TAAR1 (setting [1]).
The like results for `O=C(Nc1ccc(C2CCNC2)cc1)Nc1ccc(Cl)nc1` (racemic) [Example 26, (RS)-1-(6-Chloro-pyridin-3-yl)-3-(4-pyrrolidin-3-yl-phenyl)-urea hydrochloride] were, in that order, 0.0112 µM and 0.0279 µM.
For `O=C(Nc1ccc(C2CCNC2)cc1)c1ccc(C(F)(F)F)cn1` (racemic) [Example 139, (RS)-5-Trifluoromethyl-pyridine-2-carboxylic acid (4-pyrrolidin-3-yl-phenyl)-amide hydrochloride], the results for the inhibitory constant (Ki) on mouse TAAR1 (setting [2]) and at rat TAAR1 (setting [1]) were 0.0158 µM and 0.0051 µM, respectively.
Take `O=C(Nc1ccc(C2CCCNC2)cc1)c1ccc(C(F)(F)F)cn1` (racemic) [Example 138, (RS)-5-Trifluoromethyl-pyridine-2-carboxylic acid (4-piperidin-3-yl-phenyl)-amide hydrochloride]: the Ki at mouse TAAR1 (setting [2]) is 0.035 µM; at rat TAAR1 (setting [1]), 0.0059 µM.
The like results for `O=C(Nc1ccc(Cl)cc1)Nc1ccc(C2CNCCO2)cc1` (racemic) [Example 292, (RS)-1-(4-Chlorophenyl)-3-(4-(morpholin-2-yl)phenyl)urea hydrochloride] were, in that order, 0.001 µM and 0.001 µM.
As for `O=C(Nc1ccc(C2CNCCO2)cc1)c1csc(-c2ccccc2)n1` (racemic) [Example 233, (RS)—N-(4-(Morpholin-2-yl)phenyl)-2-phenylthiazole-4-carboxamide hydrochloride], the inhibitory constant (Ki) on mouse TAAR1 (setting [2]) was 0.0008 µM; on rat TAAR1 (setting [1]) it was 0.0014 µM.

These data come from patent publication US9452980B2, “Substituted benzamides” (Hoffmann-La Roche Inc., priority 2009, dated 2016).
